Experiment [1] relates to progesterone receptor (PR). Also on record: method as in PMID 18515094, PMID 24552459, PMID 11953818. Particulars: mibolerone eliminates PR expression; 5α-dehydrotestosterone reduces PR to basal levels; ref [1]–[4]; cited from earlier work.
For experiment [2], the system named is Leishmania major promastigotes. Nature of the experiment: leishmanicidal activity assay (72 h, microscopic counting). Particulars: for IC50: Leishmania major, read-out: Leishmanicidal activity IC50 ± SD. The class given is cell-based. The protocol:
Leishmania major (DESTO, Pakistan) was cultured in a mixture of NNN-biphasic medium, and normal physiological saline solution. L. major promastigotes were grown on RPMI 1640 medium, supplemented with fetal bovine serum (FBS) (10% heat inactivated). Parasites were centrifuged (at log phase) for 10 min at 2,000 rpm and washed thrice with saline. The final density of fresh culture (10^6 cells/mL) was acquired through dilution of parasites. Sample solution of 1 mg of test compounds was prepared in a mixture 50 μL of DMSO and 950 μL of RPMI media. Fully dissolved compounds were transferred to 96-well plate. The first row of 96-well plate received 180 μL of the medium, while the remaining wells received 100 μL medium. Test compounds (20 μL each) were added into the medium containing wells, followed by serial dilution. The parasite culture (100 μL) was then transferred to each well. Negative controls comprised of only the growth medium, while standard leishmanicidal drugs (amphotericin or pentamidine) were used as positive controls. The plate was then incubated for 72 h at 21–22°C. The inhibitory effect of test compounds on the culture was analyzed microscopically on an improved Neubauer counting chamber. IC50 values were calculated through Ezfit 5.03 Perella Scientific software (USA).

Experiment [3] relates to HeLa cancer cell line (human cervical carcinoma). Nature of the experiment: MTT cytotoxicity assay, HeLa. The following applies: 24 hours treatment, read-out: HeLa Cell line IC50 ± SD. The class given is cell-based. The protocol:
(§1) MTT (3-(4,5-dimethyl thiazol-2yl)-2,5-diphenyl tetrazolium bromide) assay was employed to study the cytotoxic activity against HeLa (human cervical carcinoma, provided by Prof. Dr. Anwar Ali Siddiqui from Aga Khan University, Karachi, Pakistan), and mouse fibroblast 3T3 (ATCC® CRL-1658, purchased from American Type Culture Collection, ATCC, Virginia, USA) cell lines. The cells (1 × 10^5 /well) were plated in 0.2 mL of DMEM high glucose medium/well in 96-well plates. The cells were treated for 24 hours with test compounds in the range of 25, 50, 75, 100, and 200 μM concentrations, respectively. For the MTT assay, the medium from the wells was removed carefully after 24 hours treatment. Each well was washed with 1X PBS for 2–3 times, and 200 μL of MTT (5 mg/mL) was added in to media containing wells (1:10). The plates were incubated for 4 hours at 37°C, in a 5% CO2 incubator. After incubation, MTT was removed and 0.1 mL of DMSO was added to each well and mixed by keeping on a stirrer. The presence of viable cells was visualized by the development of purple color due to formation of the formazan crystals. The plates were observed under spectrophotometer (Spectramax) and absorbance was taken at 545 and 570 nm for cancer and normal cell lines, respectively.

Experiment [4] has as its system 3T3 cell line (mouse fibroblast). Nature of the experiment: MTT cytotoxicity assay, 3T3. The class given is cell-based. Particulars: for IC50: read-out: 3T3 Cell line IC50 ± SD. The protocol: as §1
In general terms: Tetrazolium dyes change colour on reduction, which living cells bring about.

The target of experiment [5] is T1, β-glucuronidase enzyme (E.C. 3.2.1.31, bovine liver) (Bos taurus, UniProt A3KMY8).
T1 sequence (A3KMY8 24-652): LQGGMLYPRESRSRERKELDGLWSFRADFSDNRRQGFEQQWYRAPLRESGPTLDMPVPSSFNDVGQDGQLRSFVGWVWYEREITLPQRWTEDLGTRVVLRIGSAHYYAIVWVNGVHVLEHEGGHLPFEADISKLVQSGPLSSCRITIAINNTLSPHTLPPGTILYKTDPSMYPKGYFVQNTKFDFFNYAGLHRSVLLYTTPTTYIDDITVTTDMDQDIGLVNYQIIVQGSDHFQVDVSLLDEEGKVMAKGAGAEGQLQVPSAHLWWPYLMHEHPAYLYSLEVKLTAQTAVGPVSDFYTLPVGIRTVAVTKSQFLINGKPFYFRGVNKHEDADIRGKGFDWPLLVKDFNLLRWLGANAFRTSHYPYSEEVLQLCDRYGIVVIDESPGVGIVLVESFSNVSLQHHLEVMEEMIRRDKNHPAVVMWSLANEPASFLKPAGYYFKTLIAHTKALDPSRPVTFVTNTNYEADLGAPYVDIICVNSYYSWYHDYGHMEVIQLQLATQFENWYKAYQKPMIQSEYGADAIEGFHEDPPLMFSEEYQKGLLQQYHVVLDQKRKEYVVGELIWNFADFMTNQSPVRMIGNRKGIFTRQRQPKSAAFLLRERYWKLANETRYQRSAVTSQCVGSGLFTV
Nature of the experiment: β-glucuronidase inhibition assay (p-nitrophenyl-β-D-glucuronide, absorbance 405 nm). The class given is biochemical. The following applies: for β-glucuronidase inhibitory activity IC50 ± SD: in vitro, bovine liver enzyme, 37°C, triplicate. The protocol:
The inhibition of β-glucuronidase enzyme (E.C. 3.2.1.31, bovine liver) by test compounds was determined on a spectrophotometer by measuring the absorbance of p-nitrophenol at 405 nm, produced from the substrate. The reaction mixture comprised 185 μL of 0.1 M acetate buffer, and 5 μL of test compound solution, and 10 μL of (1U) enzyme solution in a 96-well plate. The mixture was incubated at 37°C for 30 min. The test compounds were solubilized in DMSO (100%), and 5 μL volume was added in each well (2% of total volume). […] The plates were read on a multiplate reader (SpectraMax plus 384) at 405 nm and 37°C, after addition of 50 μL of 0.4 mM p-nitrophenyl-β-D-glucuronide. All assays were performed in triplicate. IC50 values were calculated through EZ-Fit software (Perrella Scientific Inc., Amherst, MA, USA).

Setting [6] is: Mus musculus, NIH3T3, 24 hours treatment.
Setting [7] is: L. major promastigotes, 72 h at 21–22°C.

Entries after “also recorded” stand apart in the source; their conditions may differ. Read-outs that look alike come from different tables or passages of the source.

In the case of `C[C@]12CCC(=O)C[C@@H]1CC[C@@H]1[C@@H]2CC[C@]2(C)[C@@H](O)CC[C@@H]12` [5α-dehydrotestosterone], the “dose that eliminates / reduces to basal levels progesterone receptor expression” value in experiment [1] is 10 to 100 nM.
A word on the IC50: it is the concentration at which inhibition is half-maximal. For the molecule `C[C@@H]1[C@H](O)[C@@H](C)/C=C/C=C/C=C/C=C/C=C/C=C/C=C/[C@H](O[C@@H]2O[C@H](C)[C@@H](O)[C@H](N)[C@@H]2O)C[C@@H]2O[C@](O)(C[C@@H](O)C[C@@H](O)[C@H](O)CC[C@@H](O)C[C@@H](O)CC(=O)O[C@H]1C)C[C@H](O)[C@H]2C(=O)O` [Amphotericin B, reference compound], the 50% inhibitory concentration (IC50) in experiment [2] (72 h) was 0.29 ± 0.05 µM.
As to `N.N.[Cl][Pt][Cl]` [Cisplatin, reference compound], the figures for the 50% inhibitory concentration (IC50) in experiment [3] and in experiment [4] (24 hours treatment) were 38.5 ± 1.8 µM and 39.7 ± 2.7 µM, respectively.
Consider `C[C@@H]1CC2=CC(=O)CC[C@@H]2[C@H]2CC[C@@]3(C)[C@@H](CC[C@]3(C)O)[C@@H]21` [Compound 1, 17β-Hydroxy-7α,17α-dimethylestr-4-en-3-one, reference compound], for which the IC50 in experiment [2] (72 h) was found to be 29.6 ± 0.88 µM; in experiment [3] (Homo sapiens, HeLa, 24 h), 35.7 ± 4.46 µM; in experiment [5] it was 43 ± 1.24 µM; in experiment [4] (setting [6]), 46.3 ± 11.7 µM. In addition, the “dose that eliminates / reduces to basal levels progesterone receptor expression” value in experiment [1] is 1 nM.
As for `CC1CC2=CC(=O)CCC2(O)C2CCC3(C)C(CCC3(C)O)C12` (stereo not drawn) [Compound 2, 10β,17β-Dihydroxy-7α,17α-dimethylestr-4-en-3-one], in experiment [2] (setting [7]), the “Leishmanicidal activity IC50 ± SD” value is “Inactive”. For the same molecule, the half-maximal inhibitory concentration (IC50) in experiment [3] (Homo sapiens, HeLa, 24 h) was 46.5 ± 5.4 µM; in experiment [4] (setting [6]) it was 43.3 ± 7.7 µM. The “β-glucuronidase inhibitory activity IC50 ± SD” value in experiment [5] is on record as “Inactive”.
For `C[C@H]1[C@@H]2[C@H](CC[C@@]3(C)[C@H]2CC[C@]3(C)O)[C@H]2CCC(=O)C=C2[C@@H]1O` [Compound 3, 6β,17β-Dihydroxy-7α,17α-dimethylestr-4-en-3-one], the half-inhibitory concentration (IC50) in experiment [2] (72 h) came out at 79.09 ± 0.06 µM; in experiment [3] (Homo sapiens, HeLa, 24 h), 108 ± 4 µM; in experiment [4] (setting [6]), 65.6 ± 2.5 µM. For the same molecule, in experiment [5], the “β-glucuronidase inhibitory activity IC50 ± SD” value was “Inactive”.
For the molecule `CC1C(O)C2=CC(=O)CCC2(O)C2CCC3(C)C(CCC3(C)O)C12` (stereo not drawn) [Compound 4, 6β,10β,17β-Trihydroxy-7α,17α-dimethylestr-4-en-3-one], in experiment [2] (setting [7]), the “Leishmanicidal activity IC50 ± SD” value is on record as “Inactive”. For the same molecule, the IC50 stood at 152 ± 2.1 µM in experiment [3] (Homo sapiens, HeLa, 24 h) and 89.4 ± 2.7 µM in experiment [4] (setting [6]). Further, the “β-glucuronidase inhibitory activity IC50 ± SD” value in experiment [5] is given as “Inactive”.
Consider `CC1CC2=CC(=O)CCC2C2C(O)CC3(C)C(CCC3(C)O)C12` (stereo not drawn) [Compound 8, 11β,17β-Dihydroxy-7α,17α-dimethylestr-4-en-3-one], for which the IC50 in experiment [2] (72 h) was found to be 70.09 ± 0.05 µM; in experiment [3] it was 34.1 ± 5.3 µM; in experiment [3] (Homo sapiens, HeLa, 24 h) it was 34.2 ± 5.3 µM. For the same molecule, the “β-glucuronidase inhibitory activity IC50 ± SD” value in experiment [5] is on record as “Inactive”. Also, the “3T3 Cell line IC50 ± SD” value in experiment [4] (24 hours treatment) was “no cytotoxicity; also recorded: Inactive”.
As for `N=C(N)c1ccc(OCCCCCOc2ccc(C(=N)N)cc2)cc1` [Pentamidine, reference compound], the IC50 in experiment [2] (setting [7]) was found to be 5.09 ± 0.09 µM.

These data come from paper PMC5325191, “Biotransformation of a potent anabolic steroid, mibolerone, with Cunninghamella blakesleeana, C. echinulata, and Macrophomina phaseolina, and biological activity evaluation of its metabolites” (PLoS ONE, 2017).
